# Experimental data published in PubChem BioAssay (NCI).
#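 Cultured in 96-well plates, cells were exposed to test compound for 48 hours across five concentrations. The concentration for full growth arrest is given as TGI.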
# Tests used:
# Assay in all cases: NCI tumour cell line growth inhibition, 48 h
# HOP-62 NSCLC = test system: HOP-62 NSCLC
# NCI-H522 lung = test system: NCI-H522 lung
# T-47D breast = test system: T-47D breast
# KM12 colon = test system: KM12 colon
# TK-10 renal = test system: TK-10 renal
# BT-549 breast = test system: BT-549 breast
# NCI-H460 lung = test system: NCI-H460 lung
# MCF7 breast = test system: MCF7 breast
# SR leukemia = test system: SR leukemia
# MOLT-4 leukemia = test system: MOLT-4 leukemia
# SK-MEL-5 melanoma = test system: SK-MEL-5 melanoma
# SF-539 CNS = test system: SF-539 CNS
# HCC-2998 colon = test system: HCC-2998 colon
# NCI/ADR-RES ovarian = test system: NCI/ADR-RES ovarian
# 786-0 renal = test system: 786-0 renal
# OVCAR-3 ovarian = test system: OVCAR-3 ovarian
# M14 melanoma = test system: M14 melanoma
# NCI-H226 lung = test system: NCI-H226 lung
# A549 NSCLC = test system: A549 NSCLC
# SK-MEL-2 melanoma = test system: SK-MEL-2 melanoma
# SNB-19 CNS = test system: SNB-19 CNS
# MDA-N = test system: MDA-N
# UO-31 renal = test system: UO-31 renal
# HOP-92 NSCLC = test system: HOP-92 NSCLC
# SN12C renal = test system: SN12C renal
# HL-60(TB) leukemia = test system: HL-60(TB) leukemia
# EKVX NSCLC = test system: EKVX NSCLC
# ACHN renal = test system: ACHN renal
# SK-MEL-28 melanoma = test system: SK-MEL-28 melanoma
# HCT-15 colon = test system: HCT-15 colon
# MDA-MB-231 breast = test system: MDA-MB-231 breast
# UACC-62 melanoma = test system: UACC-62 melanoma
# OVCAR-8 ovarian = test system: OVCAR-8 ovarian
# NCI-H23 lung = test system: NCI-H23 lung
# DU-145 prostate = test system: DU-145 prostate
# RXF 393 renal = test system: RXF 393 renal
# SNB-75 CNS = test system: SNB-75 CNS
# HT29 colon = test system: HT29 colon
# K-562 leukemia = test system: K-562 leukemia
# CCRF-CEM leukemia = test system: CCRF-CEM leukemia
# MDA-MB-435 = test system: MDA-MB-435
# OVCAR-4 ovarian = test system: OVCAR-4 ovarian
# SW-620 colon = test system: SW-620 colon
# HS 578T breast = test system: HS 578T breast
# CAKI-1 renal = test system: CAKI-1 renal
# A498 renal = test system: A498 renal
# PC-3 prostate = test system: PC-3 prostate
# UACC-257 melanoma = test system: UACC-257 melanoma
# LOX IMVI melanoma = test system: LOX IMVI melanoma
# SF-295 CNS = test system: SF-295 CNS
# HCT-116 colon = test system: HCT-116 colon
# COLO 205 colon = test system: COLO 205 colon
# RPMI-8226 leukemia = test system: RPMI-8226 leukemia
# OVCAR-5 ovarian = test system: OVCAR-5 ovarian
# IGROV1 ovarian = test system: IGROV1 ovarian
# SF-268 CNS = test system: SF-268 CNS
# U251 CNS = test system: U251 CNS
# SK-OV-3 ovarian = test system: SK-OV-3 ovarian
structure (smiles),measurement,setting,value
Cn1c(=O)c2c(nc3n(Cc4ccccc4)c(=O)c(Br)cn23)n(C)c1=O,TGI,HOP-62 NSCLC,> 100 µM
same,TGI,NCI-H522 lung,> 100 µM
same,TGI,T-47D breast,> 100 µM
same,TGI,KM12 colon,> 100 µM
same,TGI,TK-10 renal,> 100 µM
same,TGI,BT-549 breast,> 100 µM
same,TGI,NCI-H460 lung,> 100 µM
same,TGI,MCF7 breast,> 100 µM
same,TGI,SR leukemia,> 100 µM
same,TGI,MOLT-4 leukemia,> 100 µM
same,TGI,SK-MEL-5 melanoma,> 100 µM
same,TGI,SF-539 CNS,> 100 µM
same,TGI,HCC-2998 colon,> 100 µM
same,TGI,NCI/ADR-RES ovarian,> 100 µM
same,TGI,786-0 renal,> 100 µM
same,TGI,OVCAR-3 ovarian,> 100 µM
same,TGI,M14 melanoma,> 100 µM
same,TGI,NCI-H226 lung,> 100 µM
same,TGI,A549 NSCLC,> 100 µM
same,TGI,SK-MEL-2 melanoma,> 100 µM
same,TGI,SNB-19 CNS,> 100 µM
same,TGI,MDA-N,> 100 µM
same,TGI,UO-31 renal,> 100 µM
same,TGI,HOP-92 NSCLC,> 100 µM
same,TGI,SN12C renal,> 100 µM
same,TGI,HL-60(TB) leukemia,> 100 µM
same,TGI,EKVX NSCLC,> 100 µM
same,TGI,ACHN renal,> 100 µM
same,TGI,SK-MEL-28 melanoma,> 100 µM
same,TGI,HCT-15 colon,> 100 µM
same,TGI,MDA-MB-231 breast,> 100 µM
same,TGI,UACC-62 melanoma,> 100 µM
same,TGI,OVCAR-8 ovarian,> 100 µM
same,TGI,NCI-H23 lung,> 100 µM
same,TGI,DU-145 prostate,> 100 µM
same,TGI,RXF 393 renal,> 100 µM
same,TGI,SNB-75 CNS,> 100 µM
same,TGI,HT29 colon,> 100 µM
same,TGI,K-562 leukemia,> 100 µM
same,TGI,CCRF-CEM leukemia,> 100 µM
same,TGI,MDA-MB-435,> 100 µM
same,TGI,OVCAR-4 ovarian,> 100 µM
same,TGI,SW-620 colon,> 100 µM
same,TGI,HS 578T breast,> 100 µM
same,TGI,CAKI-1 renal,> 100 µM
same,TGI,A498 renal,> 100 µM
same,TGI,PC-3 prostate,> 100 µM
same,TGI,UACC-257 melanoma,> 100 µM
same,TGI,LOX IMVI melanoma,> 100 µM
same,TGI,SF-295 CNS,> 100 µM
same,TGI,HCT-116 colon,> 100 µM
same,TGI,COLO 205 colon,> 100 µM
same,TGI,RPMI-8226 leukemia,> 100 µM
same,TGI,OVCAR-5 ovarian,> 100 µM
same,TGI,IGROV1 ovarian,> 100 µM
same,TGI,SF-268 CNS,> 100 µM
same,TGI,U251 CNS,> 100 µM
COc1nc(-c2c[nH]c3ccccc23)cnc1N,TGI,HOP-62 NSCLC,> 100 µM
same,TGI,T-47D breast,82.8 µM
same,TGI,KM12 colon,> 100 µM
same,TGI,TK-10 renal,> 100 µM
same,TGI,BT-549 breast,> 100 µM
same,TGI,NCI-H460 lung,> 100 µM
same,TGI,MCF7 breast,84.1 µM
same,TGI,SR leukemia,41.1 µM
same,TGI,MOLT-4 leukemia,54.9 µM
same,TGI,SK-MEL-5 melanoma,> 100 µM
same,TGI,SF-539 CNS,> 100 µM
same,TGI,HCC-2998 colon,> 100 µM
same,TGI,NCI/ADR-RES ovarian,> 100 µM
same,TGI,786-0 renal,36.4 µM
same,TGI,OVCAR-3 ovarian,> 100 µM
same,TGI,M14 melanoma,94.8 µM
same,TGI,A549 NSCLC,> 100 µM
same,TGI,SK-MEL-2 melanoma,81.6 µM
same,TGI,SNB-19 CNS,> 100 µM
same,TGI,MDA-N,48.9 µM
same,TGI,UO-31 renal,> 100 µM
same,TGI,HOP-92 NSCLC,23.9 µM
same,TGI,SN12C renal,43.5 µM
same,TGI,HL-60(TB) leukemia,31.5 µM
same,TGI,EKVX NSCLC,61.5 µM
same,TGI,ACHN renal,> 100 µM
same,TGI,SK-MEL-28 melanoma,64.6 µM
same,TGI,HCT-15 colon,> 100 µM
same,TGI,MDA-MB-231 breast,59.1 µM
same,TGI,UACC-62 melanoma,33.1 µM
same,TGI,OVCAR-8 ovarian,> 100 µM
same,TGI,DU-145 prostate,70.1 µM
same,TGI,HT29 colon,46.2 µM
same,TGI,K-562 leukemia,> 100 µM
same,TGI,CCRF-CEM leukemia,14.8 µM
same,TGI,MDA-MB-435,> 100 µM
same,TGI,OVCAR-4 ovarian,> 100 µM
same,TGI,SW-620 colon,> 100 µM
same,TGI,HS 578T breast,54.2 µM
same,TGI,CAKI-1 renal,> 100 µM
same,TGI,SK-OV-3 ovarian,> 100 µM
same,TGI,A498 renal,38.5 µM
same,TGI,PC-3 prostate,> 100 µM
same,TGI,UACC-257 melanoma,51.7 µM
same,TGI,LOX IMVI melanoma,> 100 µM
same,TGI,SF-295 CNS,> 100 µM
same,TGI,HCT-116 colon,55.7 µM
same,TGI,COLO 205 colon,> 100 µM
same,TGI,RPMI-8226 leukemia,39.6 µM
same,TGI,OVCAR-5 ovarian,> 100 µM
same,TGI,IGROV1 ovarian,> 100 µM
same,TGI,SF-268 CNS,> 100 µM
same,TGI,U251 CNS,> 100 µM
C/C=C(/C)C(=O)O[C@H]1CCN2CC=C(COC(=O)[C@@](O)([C@H](C)OC)C(C)(C)O)[C@H]12,TGI,HOP-62 NSCLC,> 100 µM
same,TGI,NCI-H522 lung,> 100 µM
same,TGI,T-47D breast,> 100 µM
same,TGI,KM12 colon,> 100 µM
same,TGI,TK-10 renal,> 100 µM
same,TGI,BT-549 breast,> 100 µM
same,TGI,MCF7 breast,> 100 µM
same,TGI,SR leukemia,> 100 µM
same,TGI,MOLT-4 leukemia,> 100 µM
same,TGI,SK-MEL-5 melanoma,> 100 µM
same,TGI,SF-539 CNS,> 100 µM
same,TGI,HCC-2998 colon,> 100 µM
same,TGI,NCI/ADR-RES ovarian,> 100 µM
same,TGI,786-0 renal,> 100 µM
same,TGI,OVCAR-3 ovarian,> 100 µM
same,TGI,M14 melanoma,> 100 µM
same,TGI,NCI-H226 lung,> 100 µM
same,TGI,A549 NSCLC,> 100 µM
same,TGI,SK-MEL-2 melanoma,> 100 µM
same,TGI,SNB-19 CNS,> 100 µM
same,TGI,MDA-N,> 100 µM
same,TGI,UO-31 renal,> 100 µM
same,TGI,HOP-92 NSCLC,> 100 µM
same,TGI,SN12C renal,> 100 µM
same,TGI,HL-60(TB) leukemia,> 100 µM
same,TGI,EKVX NSCLC,> 100 µM
same,TGI,ACHN renal,> 100 µM
same,TGI,SK-MEL-28 melanoma,> 100 µM
same,TGI,HCT-15 colon,> 100 µM
same,TGI,MDA-MB-231 breast,> 100 µM
same,TGI,UACC-62 melanoma,> 100 µM
same,TGI,OVCAR-8 ovarian,> 100 µM
same,TGI,NCI-H23 lung,> 100 µM
same,TGI,DU-145 prostate,> 100 µM
same,TGI,SNB-75 CNS,> 100 µM
same,TGI,HT29 colon,> 100 µM
same,TGI,K-562 leukemia,> 100 µM
same,TGI,CCRF-CEM leukemia,> 100 µM
same,TGI,MDA-MB-435,> 100 µM
same,TGI,OVCAR-4 ovarian,> 100 µM
same,TGI,SW-620 colon,> 100 µM
same,TGI,HS 578T breast,> 100 µM
same,TGI,CAKI-1 renal,> 100 µM
same,TGI,SK-OV-3 ovarian,> 100 µM
same,TGI,A498 renal,> 100 µM
same,TGI,PC-3 prostate,> 100 µM
same,TGI,UACC-257 melanoma,> 100 µM
same,TGI,LOX IMVI melanoma,> 100 µM
same,TGI,SF-295 CNS,> 100 µM
same,TGI,HCT-116 colon,> 100 µM
same,TGI,COLO 205 colon,> 100 µM
same,TGI,RPMI-8226 leukemia,> 100 µM
same,TGI,OVCAR-5 ovarian,> 100 µM
same,TGI,IGROV1 ovarian,> 100 µM
same,TGI,SF-268 CNS,> 100 µM
same,TGI,U251 CNS,> 100 µM
